Laboratory results as given in BindingDB's records for doi:10.1021/jm00039a025 (Wellcome Research Laboratories, 1994).

Assay: Ability to inhibit glycinamide ribonucleotide transformylase (GAR-Tfase) in vitro, using hog liver with (6R)-10-formyl-FH4 as cofactor

SMILES | IC50
Nc1nc(N)c(CCCNc2ccc(C(=O)N[C@H](CCC(=O)O)C(=O)O)s2)c(=O)[nH]1 [(S)-2-({5-[3-(2,4-Diamino-6-oxo-1,6-dihydro-pyrimidin-5-yl)-propylamino]-thiophene-2-carbonyl}-amino)-pentanedioic acid] | 2060 nM
Nc1nc(N)c(CCCNc2cnc(C(=O)N[C@H](CCC(=O)O)C(=O)O)s2)c(=O)[nH]1 [(S)-2-({5-[3-(2,4-Diamino-6-oxo-1,6-dihydro-pyrimidin-5-yl)-propylamino]-thiazole-2-carbonyl}-amino)-pentanedioic acid] | 140 nM
